In article PMC4901077, “Development and Identification of a Novel Anti-HIV-1 Peptide Derived by Modification of the N-Terminal Domain of HIV-1 Integrase” (Frontiers in Microbiology, 2016):
Where two headings read alike, the source gives them in different places. Marks after values point to notes of the source that are not given here. Peptide text beside a SMILES is read from it.

What was measured:
[1] = target: T1, Full-length recombinant HIV-1 integrase (Human immunodeficiency virus type 1 group M subtype B, UniProt P04585); experiment: HIV-1 IN activity inhibition assay (Xpressbio HIV-1 IN Assay kit, 3'-processing/strand transfer); format: biochemical
T1 construct: Full-length recombinant HIV-1 integrase protein was then loaded onto this oligo substrate; purchased Xpressbio Life Science Products (Express Biotech International)
Method: Express Biotech International Company performed this assay using its HIV-1 IN Assay kit (Xpressbio Life Science Products, USA. www.xpressbio.com). Briefly, Streptavidin coated 96-well plates were coated with a double-stranded HIV-1 LTR U5 donor substrate (DS) oligonucleotide containing an end-labeled biotin. Full-length recombinant HIV-1 integrase protein was then loaded onto this oligo substrate. Compounds were added to the reaction and then a different double-stranded target substrate (TS) oligo containing 3′-end modifications was added to the plate. The sequence of DS DNA and TS DNA substrates used in this assay were
respectively (Hazuda et al., [1994] and Engelman et al., [1993]). The HIV-1 IN cleaves the terminal two bases from the exposed 3′-end of the HIV-1 LTR DS and then catalyzes a strand-transfer reaction to integrate the DS into the TS. The products of the reaction were detected colorimetrically using an HRP-labeled antibody directed against the TS 3′-end modification. Percent inhibition in the IN assay was calculated and IC50 values were determined.

HIV-1 IN multimerization = target: T2, HIV-1 IN multimerization (Human immunodeficiency virus type 1 group M subtype B, UniProt P04585); experiment: HTRF-based IN multimerization assay; format: binding; conditions: for EC50: concentration stimulating the Multimerization Increase by 50%, HTRF, read-out: IN-multim MI50; for IN multimerization signal, % of control at 100 µM: measured in the presence of 100 μM concentration, read-out: IN-multim, percentage of control
T2 construct: Full-length IN and LEDGF proteins were expressed in E. coli BL21(DE3); made in house; host or cells: E. coli BL21(DE3)
Method: (§1) Full-length IN and LEDGF proteins were expressed in E. coli BL21(DE3) and were purified as described (Kessl et al., [2012]; Esposito et al., [2015]; Tintori et al., [2015]). His- and FLAG-tagged INs, were mixed in 25 mM Tris (pH 7.4) buffer containing 150 mM NaCl, 2 mM MgCl2, 0.1% Nonidet P-40, 1 mg/ml BSA. Test compounds were then added to the mixture. A mixture of anti-His6-XL665 and anti-FLAG-EuCryptate antibodies were then added to the reaction and, after an incubation, the plate are read and the HTRF signal is calculated from the 665/620 nm ratio.
(§2) In this assay two IN preparation are used: a first His-tagged IN preparation, and a second Flag-tagged IN preparation. In both preparations the purified IN is at equilibrium as a dimer; such dimers go through monomers exchange. […] The formation of this “hybrid” dimer can be monitored in the HTRF-based assay as described (Esposito et al., [2015]; Tintori et al., [2015]). When the assay is performed in the presence of a compound inhibiting dimerization, the HTRF signal decreases as the concentration of compound increases, whereas in the presence of a compound promoting IN multimerization (association of dimers) the HTRF signal increases as the concentration of the compound increases.

[2] = target: T3, HIV-1 IN-IN subunit exchange (Human immunodeficiency virus type 1 group M subtype B, UniProt P04585); experiment: HTRF-based IN subunit exchange assay (IN-IN dimerization); format: binding; conditions: for IC50: concentration required to inhibit the HIV-1 IN-IN subunit exchange by 50%, HTRF, His- and FLAG-tagged IN; for IN-IN subunit exchange, percentage of control: measured in the presence of 100 μM concentration
T3 construct: Full-length IN and LEDGF proteins were expressed in E. coli BL21(DE3); made in house; host or cells: E. coli BL21(DE3)
Method: as §1, §2

[3] = Table 1, colorimetric HRP read-out, ±SD, read-out: IN inhibition IC50(μM) ±SD
[4] = Table 2, colorimetric HRP read-out, read-out: IN inhibition IC50

Compound | IC50 [1, 3] | EC50 (HIV-1 IN multimerization) | IN multimerization signal, % of control at 100 µM (HIV-1 IN multimerization) | IC50 [2] | IN-IN subunit exchange, percentage of control [2] | IC50 [1, 4]
Ac-DFNLPPVVAK-NH2 [Peptide 9] | 213 ± 12 µM | – | – | – | – | –
Ac-VVAKEIVAH-NH2 [Peptide 18] | 4.5 ± 0.9 µM | > 100 µM | 100% | > 100 µM | >100 (100%)^b | –
CC[C@H](C)[C@H](NC(=O)[C@H](CCC(=O)O)NC(=O)[C@H](CCCCN)NC(C)=O)C(=O)N[C@H](C(=O)N[C@@H](C)C(=O)N[C@@H](CO)C(=O)N[C@@H](CS)C(=O)N[C@@H](CC(=O)O)C(=O)N[C@@H](CCCCN)C(=O)N[C@@H](CS)C(N)=O)C(C)C [Peptide 12] (Ac-KEIVASCDKC-NH2) | 477 ± 23 µM | – | – | – | – | –
Ac-VVAKAIVAH-NH2 [Peptide 25] | – | 4.8 ± 0.4 µM | – | > 100 µM | >100 (100%) | 13 ± 1 µM
Ac-GIDKAQDEHE-NH2 [Peptide 2] | 162 ± 9 µM | – | – | – | – | –
Ac-VVAAEIVAH-NH2 [Peptide 24] | – | > 100 µM | 100% | 32 ± 3 µM | – | 20.8 ± 1.3 µM
Ac-VFAKEIVAH-NH2 [Peptide 20] | – | – | – | – | – | 375 ± 19 µM
Ac-VVAKEIFAH-NH2 [Peptide 21] | – | – | – | – | – | 504 ± 22 µM
CCCC(C(=O)O)c1c(C)nc2ccc(Cl)cc2c1-c1ccccc1 (stereo not drawn) [LEDGIN-6, reference compound] | – | 10 ± 1 µM | – | > 100 µM | >100 (100%) | –
